Literature values in patent US9849145B2, “Pharmaceutical composition containing honeysuckle extract and antibiotics, pharmaceutical kit, and use of honeysuckle extract for preparation of drug” (priority 2011, dated 2017).

Assays:
Set-up in all cases: key: Resistant; Sensitive; Intermediate degree (moderate resistance)
Klebsiella pneumoniae [1] = conditions: clinical isolate, specimen 31853, urine; cited from earlier work
Escherichia coli = conditions: clinical isolate, specimen 32042, urine; cited from earlier work
Pseudomona aeruginosa = conditions: clinical isolate, specimen 12; cited from earlier work
Klebsiella pneumoniae [2] = conditions: clinical isolate, specimen 31494, sputum; cited from earlier work
Staphylococcus aureus = conditions: clinical isolate, specimen Y31692, secretion; cited from earlier work

CO/N=C(\C(=O)N[C@@H]1C(=O)N2C(C(=O)O)=C(CSc3nc(=O)c(=O)[nH]n3C)CS[C@H]12)c1csc(N)n1 [CRO, ceftriaxone]
resistance of Klebsiella pneumoniae to the antibiotic (Klebsiella pneumoniae [1]): S | resistance of Escherichia coli to the antibiotic (Escherichia coli): R | resistance of Pseudomona aeruginosa to the antibiotic (Pseudomona aeruginosa): R | drug resistant spectrum of the experimental strain of Klebsiella pneumoniae (Klebsiella pneumoniae [2]): R

CO[C@@]1(NC(=O)Cc2cccs2)C(=O)N2C(C(=O)O)=C(COC(N)=O)CS[C@@H]21 [FOX, cefoxitin]
resistance of Klebsiella pneumoniae to the antibiotic (Klebsiella pneumoniae [1]): S | resistance of Escherichia coli to the antibiotic (Escherichia coli): R | resistance of Staphylococcus aureus to the antibiotic (Staphylococcus aureus): S | drug resistant spectrum of the experimental strain of Klebsiella pneumoniae (Klebsiella pneumoniae [2]): S

CO/N=C(\C(=O)N[C@@H]1C(=O)N2C(C(=O)O)=C(COC(C)=O)CS[C@H]12)c1csc(N)n1 [CTX, cefotaxime]
resistance of Klebsiella pneumoniae to the antibiotic (Klebsiella pneumoniae [1]): S | resistance of Escherichia coli to the antibiotic (Escherichia coli): R | resistance of Pseudomona aeruginosa to the antibiotic (Pseudomona aeruginosa): S | drug resistant spectrum of the experimental strain of Klebsiella pneumoniae (Klebsiella pneumoniae [2]): R

CC[C@H]1OC(=O)[C@H](C)[C@@H](O[C@H]2C[C@@](C)(OC)[C@@H](O)[C@H](C)O2)[C@H](C)[C@@H](O[C@@H]2O[C@H](C)C[C@H](N(C)C)[C@H]2O)[C@](C)(O)C[C@@H](C)C(=O)[C@H](C)[C@@H](O)[C@]1(C)O [ERY, erythromycin]
resistance of Staphylococcus aureus to the antibiotic (Staphylococcus aureus): R

CO/N=C(\C(=O)N[C@@H]1C(=O)N2C(C(=O)O)=C(COC(N)=O)CS[C@H]12)c1ccco1 [CXM, cefuroxime]
resistance of Klebsiella pneumoniae to the antibiotic (Klebsiella pneumoniae [1]): S | resistance of Escherichia coli to the antibiotic (Escherichia coli): R | resistance of Pseudomona aeruginosa to the antibiotic (Pseudomona aeruginosa): R | drug resistant spectrum of the experimental strain of Klebsiella pneumoniae (Klebsiella pneumoniae [2]): R

CC(C)(O/N=C(\C(=O)N[C@@H]1C(=O)N2C(C(=O)[O-])=C(C[n+]3ccccc3)CS[C@H]12)c1csc(N)n1)C(=O)O [CAZ, ceftazidime]
resistance of Klebsiella pneumoniae to the antibiotic (Klebsiella pneumoniae [1]): S | resistance of Escherichia coli to the antibiotic (Escherichia coli): R | resistance of Pseudomona aeruginosa to the antibiotic (Pseudomona aeruginosa): S | drug resistant spectrum of the experimental strain of Klebsiella pneumoniae (Klebsiella pneumoniae [2]): S

amoxicillin/clavulanic acid [AMC]
resistance of Klebsiella pneumoniae to the antibiotic (Klebsiella pneumoniae [1]): S | resistance of Escherichia coli to the antibiotic (Escherichia coli): I | drug resistant spectrum of the experimental strain of Klebsiella pneumoniae (Klebsiella pneumoniae [2]): I

CN[C@H](CC(C)C)C(=O)N[C@H]1C(=O)N[C@@H](CC(N)=O)C(=O)N[C@H]2C(=O)N[C@H]3C(=O)N[C@H](C(=O)N[C@H](C(=O)O)c4cc(O)cc(O)c4-c4cc3ccc4O)[C@H](O)c3ccc(c(Cl)c3)Oc3cc2cc(c3O[C@@H]2O[C@H](CO)[C@@H](O)[C@H](O)[C@H]2O[C@H]2C[C@](C)(N)[C@H](O)[C@H](C)O2)Oc2ccc(cc2Cl)[C@H]1O [VAN, vancomycin]
resistance of Staphylococcus aureus to the antibiotic (Staphylococcus aureus): S

NCC[C@H](O)C(=O)N[C@@H]1C[C@H](N)[C@@H](O[C@H]2O[C@H](CN)[C@@H](O)[C@H](O)[C@H]2O)[C@H](O)[C@H]1O[C@H]1O[C@H](CO)[C@@H](O)[C@H](N)[C@H]1O [AMK, amikacin]
resistance of Klebsiella pneumoniae to the antibiotic (Klebsiella pneumoniae [1]): S | resistance of Escherichia coli to the antibiotic (Escherichia coli): S | resistance of Staphylococcus aureus to the antibiotic (Staphylococcus aureus): S | resistance of Pseudomona aeruginosa to the antibiotic (Pseudomona aeruginosa): S | drug resistant spectrum of the experimental strain of Klebsiella pneumoniae (Klebsiella pneumoniae [2]): S

ticarcillin/clavulanic acid [TIM]
resistance of Pseudomona aeruginosa to the antibiotic (Pseudomona aeruginosa): S

sulperazon [CLS]
resistance of Pseudomona aeruginosa to the antibiotic (Pseudomona aeruginosa): S

O=C(N[C@H](CO)[C@H](O)c1ccc([N+](=O)[O-])cc1)C(Cl)Cl [CHL, chloramphenicol]
resistance of Klebsiella pneumoniae to the antibiotic (Klebsiella pneumoniae [1]): I | resistance of Escherichia coli to the antibiotic (Escherichia coli): S | drug resistant spectrum of the experimental strain of Klebsiella pneumoniae (Klebsiella pneumoniae [2]): R

gentamicin
resistance of Klebsiella pneumoniae to the antibiotic (Klebsiella pneumoniae [1]): S | resistance of Escherichia coli to the antibiotic (Escherichia coli): R | resistance of Staphylococcus aureus to the antibiotic (Staphylococcus aureus): S | resistance of Pseudomona aeruginosa to the antibiotic (Pseudomona aeruginosa): S | drug resistant spectrum of the experimental strain of Klebsiella pneumoniae (Klebsiella pneumoniae [2]): R

Cc1onc(-c2ccccc2)c1C(=O)N[C@@H]1C(=O)N2[C@@H]1SC(C)(C)[C@@H]2C(=O)O [OXA, oxacillin]
resistance of Staphylococcus aureus to the antibiotic (Staphylococcus aureus): S

CO[C@H]1/C=C/O[C@@]2(C)Oc3c(C)c(O)c4c(O)c(c(/C=N/N5CCN(C)CC5)c(O)c4c3C2=O)NC(=O)/C(C)=C\C=C\[C@H](C)[C@H](O)[C@@H](C)[C@@H](O)[C@@H](C)[C@H](OC(C)=O)[C@@H]1C [RIF, rifampin]
resistance of Staphylococcus aureus to the antibiotic (Staphylococcus aureus): S

ampicillin/sulbactam [SAM]
resistance of Staphylococcus aureus to the antibiotic (Staphylococcus aureus): S | resistance of Pseudomona aeruginosa to the antibiotic (Pseudomona aeruginosa): R

piperacillin/tazobactam [TZP]
resistance of Klebsiella pneumoniae to the antibiotic (Klebsiella pneumoniae [1]): S | resistance of Escherichia coli to the antibiotic (Escherichia coli): I | resistance of Pseudomona aeruginosa to the antibiotic (Pseudomona aeruginosa): S | drug resistant spectrum of the experimental strain of Klebsiella pneumoniae (Klebsiella pneumoniae [2]): I

CCn1cc(C(=O)O)c(=O)c2cc(F)c(N3CCNCC3)cc21 [NOR, norfloxacin]
resistance of Pseudomona aeruginosa to the antibiotic (Pseudomona aeruginosa): S

NC[C@H]1O[C@H](O[C@H]2[C@H](O)[C@@H](O[C@H]3O[C@H](CO)[C@@H](O)[C@H](N)[C@H]3O)[C@H](N)C[C@@H]2N)[C@H](N)C[C@@H]1O [TOB, tobramycin]
resistance of Pseudomona aeruginosa to the antibiotic (Pseudomona aeruginosa): S

penicillin [PNE]
resistance of Staphylococcus aureus to the antibiotic (Staphylococcus aureus): R

C[C@H]1[C@H](NC(=O)/C(=N\OC(C)(C)C(=O)O)c2csc(N)n2)C(=O)N1S(=O)(=O)O [ATM, aztreonam]
resistance of Pseudomona aeruginosa to the antibiotic (Pseudomona aeruginosa): S

Cc1nnc(SCC2=C(C(=O)O)N3C(=O)[C@@H](NC(=O)Cn4cnnn4)[C@H]3SC2)s1 [CZO, cefazolin]
resistance of Klebsiella pneumoniae to the antibiotic (Klebsiella pneumoniae [1]): S | resistance of Escherichia coli to the antibiotic (Escherichia coli): R | drug resistant spectrum of the experimental strain of Klebsiella pneumoniae (Klebsiella pneumoniae [2]): R

C[C@H]1COc2c(N3CCN(C)CC3)c(F)cc3c(=O)c(C(=O)O)cn1c23 [LEV, left-handed oxygen fluorine]
resistance of Pseudomona aeruginosa to the antibiotic (Pseudomona aeruginosa): S

CCN1CCN(C(=O)N[C@@H](C(=O)N[C@@H]2C(=O)N3C(C(=O)O)=C(CSc4nnnn4C)CS[C@H]23)c2ccc(O)cc2)C(=O)C1=O [CFP, cefoperazone]
resistance of Pseudomona aeruginosa to the antibiotic (Pseudomona aeruginosa): S

CO/N=C(\C(=O)N[C@@H]1C(=O)N2C(C(=O)[O-])=C(C[N+]3(C)CCCC3)CS[C@H]12)c1csc(N)n1 [FEP, cefepime]
resistance of Klebsiella pneumoniae to the antibiotic (Klebsiella pneumoniae [1]): S | resistance of Escherichia coli to the antibiotic (Escherichia coli): R | resistance of Pseudomona aeruginosa to the antibiotic (Pseudomona aeruginosa): S | drug resistant spectrum of the experimental strain of Klebsiella pneumoniae (Klebsiella pneumoniae [2]): S

CCN1CCN(C(=O)N[C@@H](C(=O)N[C@@H]2C(=O)N3[C@@H]2SC(C)(C)[C@@H]3C(=O)O)c2ccccc2)C(=O)C1=O [PIP, piperacillin]
resistance of Klebsiella pneumoniae to the antibiotic (Klebsiella pneumoniae [1]): I | resistance of Escherichia coli to the antibiotic (Escherichia coli): R | resistance of Pseudomona aeruginosa to the antibiotic (Pseudomona aeruginosa): S | drug resistant spectrum of the experimental strain of Klebsiella pneumoniae (Klebsiella pneumoniae [2]): R

trimethoprim-sulfamethoxazole [SXT]
resistance of Klebsiella pneumoniae to the antibiotic (Klebsiella pneumoniae [1]): R | resistance of Escherichia coli to the antibiotic (Escherichia coli): R | resistance of Staphylococcus aureus to the antibiotic (Staphylococcus aureus): S | drug resistant spectrum of the experimental strain of Klebsiella pneumoniae (Klebsiella pneumoniae [2]): R
